Results as given in patent US20020045638A1, “Method of treating estrogen receptor positive carcinoma” (priority 2000, published 2002).
Read-outs that look alike come from different tables or passages of the source.

Key:
[1] = tested on: MCF-7 human breast cancer cells; assay: Inhibition of growth of MCF-7 breast cancer cells (MTT), with MacSynergy II synergy analysis; conditions: for inhibition at 0.05 µM / inhibition at 0.1 µM / inhibition at 0.2 µM / inhibition at 0.4 µM / inhibition at 0.005 µM / inhibition at 0.01 µM: Homo sapiens, MCF7, read-out: Percent Inhibition, Table E;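 as to all read-outs here: cells treated five or six days with single agents or combinations, growth read by MTT, synergy surface equals observed % inhibition minus Bliss additive prediction, values under 0% signal antagonism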
Procedure: In these test procedures, rapamycin 42-ester with 3-hydroxy-2-(hydroxymethyl)-2-methylpropionic acid was used as a representative rapamycin, and 2-(4-hydroxy-phenyl)-3-methyl-1-[4-(2-piperdin-1-yl-ethoxy)-benzyl-1 H-indol-5-ol, raloxifene, and 4-hydroxytamoxifen were used as representative antiestrogens.
MCF-7 human breast cancer cells were maintained at 37° C. in a humidified atmosphere of 5% CO2 and 95% air in IMEM medium supplemented with 10% fetal bovine serum. […] One day before the experiment, cells were plated in 96-well plates at a cell density of 2,500 cells/well in IMEM medium supplemented with 10% fetal bovine serum. The next day, cells were treated with various concentrations of antiestrogen and rapamycin 42-ester with 3-hydroxy-2-(hydroxymethyl)-2-methylpropionic acid (referred to as CCI-779 in the tables below). Five or six-days later, cell growth was monitored. MTT solution (20 ul) (0.5 mg/ml) was added to each well and cells were incubated for an additional 4 h. The solution was then removed and 150 ul of DMSO added. The intensity of dark blue color corresponding to number of cells was read at 540 nm with an automated plate reader.
Briefly, theoretical additive interactions were calculated from the dose-response curves of each individual drug based on Bliss independence model. The calculated additive surface was then subtracted from the experimental surface to obtain a synergy surface representing % inhibition above the calculated additive value-synergy index. […] Likewise, any peak below the 0% plane is indicative of antagonism.

MCF-7 tumors = assay: Growth of MCF-7 breast carcinoma implanted in nude mice; format: in vivo; conditions: for Tumor size (mean ± standard error): 5 mg/kg CCI-779 PO q2d days 1-9
Procedure: In the third standard pharmacological test procedure, mice implanted with MCF-7 tumors were treated with a combination of ERA-923 and CCI-779. […] ERA-923 was dissolved in 1% Tween 80 and 0.9% NaCl Injection USP. Drug was aliquoted into daily doses using 10.0 ml glass bottles and frozen at −20° C. until needed. CCI-779 was made fresh using a 5% ETOH, 4.9% Phosal and 0.1% Tween 80 in Sterile Water. 0.2 ml of each drug was given orally starting the day after tumor implantation. ERA 923 was given daily for the duration of the experiment and CCI-779 was given every other day for the first 10 days. The control vehicles were given on the same regime as the drugs. MCF7 cells were cultured in IMEM containing 5% Fetal Bovine Serum with passages varying from 2-20. After trypsinization tumors were resuspended in IMEM with 2% Serum at a 1:1 ratio with Matrigel. 10 million cells were injected subcutaneously into the mammary tissue of each mouse using a 1.0 ml tuberculin syringe with a 23 3/4 gauge needle. Five to six week old female ovariectomized athymic nu/nu mice (Charles River Labs: Wilmington, Mass.) weighing from 20.0-23.0 g were used. The animals were housed 5 to a cage in a Microisolator Open Rack System (Lab Products: Maywood, N.J.). Each mouse received a 17β-Estradiol pellet (0.72 mg/pellet-60 day release). The pellets were injected with a 10 gauge trochar into the lateral side of the neck between the ear and the shoulder 1-2 weeks prior to tumor injection. Control groups were 15 mice/vehicle whereas the drug groups were 10 mice/drug. Tumors were measured weekly by means of solar calipers (Cole-Parmer Instuments: Vernon Hills, Ill.) and tumor weights were estimated from tumor diameters by the following formula:
Tumor weight (mg)=tumor length (mm)×tumor width (mm)^2/2.
Mice were euthanized 36 days after tumor injection by CO2 inhalation. […] Nude mice bearing MCF-7 tumors were given ERA-923, CCI-779 or the combination of both drugs.

## CO[C@H]1C[C@@H]2CC[C@@H](C)[C@@](O)(O2)C(=O)C(=O)N2CCCC[C@H]2C(=O)O[C@H]([C@H](C)C[C@@H]2CC[C@@H](OC(=O)C(C)(CO)CO)[C@H](OC)C2)CC(=O)[C@H](C)/C=C(\C)[C@@H](O)[C@@H](OC)C(=O)[C@H](C)C[C@H](C)/C=C/C=C/C=C/1C [CCI-779, rapamycin 42-ester with 3-hydroxy-2-(hydroxymethyl)-2-methylpropionic acid]
[1]; CCI-779 10 nM + CCI-779 50 nM
  inhibition at 0.05 µM: 51.2%
[1]; CCI-779 10 nM + CCI-779 100 nM
  inhibition at 0.1 µM: 54.8%
[1]; CCI-779 10 nM + CCI-779 200 nM
  inhibition at 0.2 µM: 62.4%
[1]; CCI-779 10 nM + CCI-779 400 nM
  inhibition at 0.4 µM: 65.2%
[1]; CCI-779 50 nM + CCI-779 5 nM
  inhibition at 0.005 µM: 48.3%
[1]; CCI-779 50 nM + CCI-779 10 nM
  inhibition at 0.01 µM: 46.9%
[1]; CCI-779 50 nM + CCI-779 50 nM
  inhibition at 0.05 µM: 50.3%
[1]; CCI-779 50 nM + CCI-779 100 nM
  inhibition at 0.1 µM: 54.6%
[1]; CCI-779 50 nM + CCI-779 200 nM
  inhibition at 0.2 µM: 57.5%
[1]; CCI-779 50 nM + CCI-779 400 nM
  inhibition at 0.4 µM: 60.2%
[1]; CCI-779 100 nM + CCI-779 5 nM
  inhibition at 0.005 µM: 54.2%
[1]; CCI-779 100 nM + CCI-779 10 nM
  inhibition at 0.01 µM: 52.9%
[1]; CCI-779 100 nM + CCI-779 50 nM
  inhibition at 0.05 µM: 51%
[1]; CCI-779 100 nM + CCI-779 100 nM
  inhibition at 0.1 µM: 55%
[1]; CCI-779 100 nM + CCI-779 200 nM
  inhibition at 0.2 µM: 62.5%
[1]; CCI-779 100 nM + CCI-779 400 nM
  inhibition at 0.4 µM: 66.8%
[1]; CCI-779 200 nM + CCI-779 5 nM
  inhibition at 0.005 µM: 51.4%
[1]; CCI-779 200 nM + CCI-779 10 nM
  inhibition at 0.01 µM: 57.1%
[1]; CCI-779 200 nM + CCI-779 50 nM
  inhibition at 0.05 µM: 57.2%
[1]; CCI-779 200 nM + CCI-779 100 nM
  inhibition at 0.1 µM: 59%
[1]; CCI-779 200 nM + CCI-779 200 nM
  inhibition at 0.2 µM: 65.5%
[1]; CCI-779 200 nM + CCI-779 400 nM
  inhibition at 0.4 µM: 66.8%
[1]; CCI-779 400 nM + CCI-779 5 nM
  inhibition at 0.005 µM: 61.1%
[1]; CCI-779 400 nM + CCI-779 10 nM
  inhibition at 0.01 µM: 61.1%
[1]; CCI-779 400 nM + CCI-779 50 nM
  inhibition at 0.05 µM: 60%
[1]; CCI-779 400 nM + CCI-779 100 nM
  inhibition at 0.1 µM: 62%
[1]; CCI-779 400 nM + CCI-779 200 nM
  inhibition at 0.2 µM: 66.3%
[1]; CCI-779 400 nM + CCI-779 400 nM
  inhibition at 0.4 µM: 69.7%
[1]; MCF-7, ERA-923 in combination with CCI-779 (Table A)
  concentrations at which synergy was more pronounced: 300 to 400 nM
[1]; Table A, CCI-779 5 nM, ERA-923 0 nM
  Percent Inhibition: −13.25%
[1]; Table A, CCI-779 10 nM, ERA-923 0 nM
  Percent Inhibition: −1.54%
[1]; Table A, CCI-779 50 nM, ERA-923 0 nM
  Percent Inhibition: 26.68%
[1]; Table A, CCI-779 100 nM, ERA-923 0 nM
  Percent Inhibition: 37.93%
[1]; Table A, CCI-779 200 nM, ERA-923 0 nM
  Percent Inhibition: 34.99%
[1]; Table A, CCI-779 400 nM, ERA-923 0 nM
  Percent Inhibition: 39.43%
[1]; Table E, CCI-779 5 nM + CCI-779 0 nM
  Percent Inhibition: 0.59%
[1]; Table E, CCI-779 10 nM + CCI-779 0 nM
  Percent Inhibition: 4.91%
[1]; Table E, CCI-779 50 nM + CCI-779 0 nM
  Percent Inhibition: 36.55%
[1]; Table E, CCI-779 100 nM + CCI-779 0 nM
  Percent Inhibition: 42.35%
[1]; Table E, CCI-779 200 nM + CCI-779 0 nM
  Percent Inhibition: 45.87%
[1]; Table E, CCI-779 400 nM + CCI-779 0 nM
  Percent Inhibition: 55.78%
MCF-7 tumors; day 14 after tumor implantation
  Tumor size (mean ± standard error): 260 ± 18 mg
MCF-7 tumors; day 21 after tumor implantation
  Tumor size (mean ± standard error): 485 ± 53 mg
MCF-7 tumors; day 28 after tumor implantation
  Tumor size (mean ± standard error): 704 ± 63 mg
MCF-7 tumors; day 36 after tumor implantation
  Tumor size (mean ± standard error): 1123 ± 134 mg
MCF-7 tumors; nude mice bearing MCF-7 tumors, growth inhibition=experimental value−200 (baseline)/control value −200
  inhibition of tumor growth: approximately 35%
